{"source": "patent US20130023504A1", "about": "“Modulation of Prostaglandin/Cyclooxygenase Metabolic Pathways” (HUNTER-FLEMING LIMITED, priority 2006, published 2013)", "format_in_all_cases": "cell-based", "key": {"[1]": {"test_system": "m-PGES1 mRNA", "assay": "m-PGES1 mRNA in human PBMC with and without TNF-α, quantitative RT-PCR", "procedure": "(§1) Whole blood was collected from donors in EDTA-supplemented pouches at the Etablissement Français du Sang (Brest, France). The PBMC were isolated then from whole blood under sterile conditions within 36 hours after collection. Gradient density centrifugation was carried out on Ficoll (Eurobio). After washing in RPMI 1640 medium (Eurobio), cells were suspended in RPMI 1640 medium supplemented with 10% heat-inactivated fetal calf serum (Eurobio), 2 mM glutamine (D. Dutscher), 100 U of penicillin/ml (D. Dutscher), and 100 μg of streptomycin/ml (D. Dutscher). Monocytes were selected by plastic adherence for 1 h and approximately 10^7 cells were plated in 6-well tissue culture plates (3 mL medium per well). All incubations were performed in a humidified incubator at 37° C. and 5% CO2. Cells were recovered and dispersed in 2 ml fresh incubation medium supplemented with either 7β-hydroxyEPIA, 7β-hydroxy-DHEA, or 7α-hydroxy-DHEA (in 20 μL ethanol) in the presence or absence of 0.01 μg/mL TNF-α (Sigma-Aldrich). Control incubations contained 20 μl ethanol but no steroid. Supernatants were collected after 4 h and 24 hours incubations for measurement of their PG contents and cells were used for subsequent RNA isolation. A single step extraction method using the Trizol Reagent (Invitrogen, Cergy-Pontoise, France) provided total RNA.\n(§2) cDNAs were synthesized from TURBO DNase I—treated RNA (Ambion, Huntingdon, UK) using the Superscript first strand synthesis system kit (Invitrogen). RT-PCR amplification mixtures (50 μL) contained 2.5× RealMaster Mix/20×SYBR solution (11.25 μL) (Eppendorf, Le Pecq, France) and 200 nM forward and reverse primers. Reactions were run on a RealPlex ep gradient S mastercycler (Eppendorf). The cycling conditions were 10 minutes at 95° C. and 45 cycles at 95° C., 55° C. and 68° C. for 15 seconds, 30 seconds and 30 seconds, respectively. Each assay included a standard curve of four serial dilution points of control cDNA. The HPRT1 housekeeping gene was used for quantification. All oligonucleotide primers (Table 2) were synthesized by Genecust/Distribio (Evry, France). The specificity of the amplified product was monitored by examining the melting curve of the product and confirmed by analysis on agarose gel electrophoresis.\n(§3) All assays were carried out in triplicate and results were plotted as mean±S.E.M. One-way analysis of variance was performed followed by Duncan's multiple range tests in order to compare the differences between groups. Differences were considered statistically significant when p<0.05."}, "[2]": {"test_system": "COX-2 mRNA", "assay": "COX-2 mRNA in human PBMC with and without TNF-α, quantitative RT-PCR", "procedure": "as §1, §2, §3"}, "[3]": {"test_system": "human PBMC", "assay": "PG levels (PGE2, PGD2, 15d-PGJ2) in culture medium of human PBMC cultured with and without TNF-α, EIA (Example 3)", "procedure": "as §1\nCommercially available EIA kits were used for the determination of PGE2 levels (Oxford Biomedical Research, UK) and 15d-PGJ2 levels (Assay designs, Euromedex, France) in culture media. Measurement of PGD2 levels was obtained using the prostaglandin D2-MOX EIA kit (Cayman Chemical, Euromedex). In this case, and prior to assay, the fresh samples were immediately treated with the MOX-HCl reagent, which converted PGD2 into PGD2-MOX, thus preventing any further chemical degradation.\nas §3"}, "[4]": {"conditions": "100 nM + TNF-α (10 ng/mL), 24 h"}}, "note": "Marks after values point to notes of the source that are not given here.", "data": [{"smiles": "CC12CCC3C(C1CCC2=O)[C@H](O)C=C1C[C@@H](O)CCC13C", "note": "(stereo partly drawn) [7α-hydroxy-DHEA, 7α-hydroxy-dehydroEPIAndrosterone]", "values": [{"measurement": "mPGES1 (mRNA), mRNA production relative to controls", "setting": "[1]; 1 nM + TNF-α (10 ng/mL), 24 h", "value": "21.5 ± 6.66^a"}, {"measurement": "mPGES1 (mRNA), mRNA production relative to controls", "setting": "[1]; 1 nM, 4 h, without TNF-α", "value": "0.76 ± 0.053"}, {"measurement": "mPGES1 (mRNA), mRNA production relative to controls", "setting": "[1]; 1 nM, 24 h, without TNF-α", "value": "1.77 ± 0.324^a"}, {"measurement": "mPGES1 (mRNA), mRNA production relative to controls", "setting": "[1]; 10 nM + TNF-α (10 ng/mL), 24 h", "value": "24.9 ± 10.30^a"}, {"measurement": "mPGES1 (mRNA), mRNA production relative to controls", "setting": "[1]; 10 nM, 4 h, without TNF-α", "value": "0.94 ± 0.067"}, {"measurement": "mPGES1 (mRNA), mRNA production relative to controls", "setting": "[1]; 10 nM, 24 h, without TNF-α", "value": "3.61 ± 0.662^a"}, {"measurement": "mPGES1 (mRNA), mRNA production relative to controls", "setting": "[1]; [4]", "value": "25.4 ± 6.96^a"}, {"measurement": "mPGES1 (mRNA), mRNA production relative to controls", "setting": "[1]; 100 nM, 4 h, without TNF-α", "value": "0.71 ± 0.058"}, {"measurement": "mPGES1 (mRNA), mRNA production relative to controls", "setting": "[1]; 100 nM, 24 h, without TNF-α", "value": "2.63 ± 0.475^a"}, {"measurement": "COX-2 (mRNA), mRNA production relative to controls", "setting": "[2]; 1 nM + TNF-α (10 ng/mL), 4 h", "value": "4.72 ± 1.229^a"}, {"measurement": "COX-2 (mRNA), mRNA production relative to controls", "setting": "[2]; 1 nM, 4 h, without TNF-α", "value": "0.56 ± 0.072^b"}, {"measurement": "COX-2 (mRNA), mRNA production relative to controls", "setting": "[2]; 1 nM, 24 h, without TNF-α", "value": "0.82 ± 0.27^b"}, {"measurement": "COX-2 (mRNA), mRNA production relative to controls", "setting": "[2]; 10 nM + TNF-α (10 ng/mL), 4 h", "value": "3.70 ± 1.246^a"}, {"measurement": "COX-2 (mRNA), mRNA production relative to controls", "setting": "[2]; 10 nM, 4 h, without TNF-α", "value": "0.94 ± 0.048"}, {"measurement": "COX-2 (mRNA), mRNA production relative to controls", "setting": "[2]; 10 nM, 24 h, without TNF-α", "value": "1.66 ± 0.408^a"}, {"measurement": "COX-2 (mRNA), mRNA production relative to controls", "setting": "[2]; 100 nM, 4 h, without TNF-α", "value": "1.10 ± 0.108"}, {"measurement": "COX-2 (mRNA), mRNA production relative to controls", "setting": "[2]; 100 nM, 24 h, without TNF-α", "value": "1.05 ± 0.214"}, {"measurement": "15d-PGJ2", "setting": "[3]; 1 nM + TNF-α (10 ng/mL), 4 h", "value": "0.37 ± 0.020", "unit": "ng/mL"}, {"measurement": "PGD2", "setting": "[3]; 1 nM + TNF-α (10 ng/mL), 4 h", "value": "0.20 ± 0.003", "unit": "ng/mL"}, {"measurement": "PGE2", "setting": "[3]; 1 nM + TNF-α (10 ng/mL), 4 h", "value": "0.43 ± 0.003", "unit": "ng/mL"}, {"measurement": "15d-PGJ2", "setting": "[3]; 1 nM + TNF-α (10 ng/mL), 24 h", "value": "0.63 ± 0.007^d ng/mL"}, {"measurement": "PGE2", "setting": "[3]; 1 nM + TNF-α (10 ng/mL), 24 h", "value": "1.53 ± 0.048^c ng/mL"}, {"measurement": "15d-PGJ2", "setting": "[3]; 1 nM, 4 h, without TNF-α", "value": "0.46 ± 0.004", "unit": "ng/mL"}, {"measurement": "PGD2", "setting": "[3]; 1 nM, 4 h, without TNF-α", "value": "0.17 ± 0.004", "unit": "ng/mL"}, {"measurement": "PGE2", "setting": "[3]; 1 nM, 4 h, without TNF-α", "value": "0.22 ± 0.006", "unit": "ng/mL"}, {"measurement": "15d-PGJ2", "setting": "[3]; 1 nM, 24 h, without TNF-α", "value": "0.51 ± 0.013^a ng/mL"}, {"measurement": "PGD2", "setting": "[3]; 1 nM, 24 h, without TNF-α", "value": "0.13 ± 0.001", "unit": "ng/mL"}, {"measurement": "PGE2", "setting": "[3]; 1 nM, 24 h, without TNF-α", "value": "0.23 ± 0.003", "unit": "ng/mL"}, {"measurement": "15d-PGJ2", "setting": "[3]; 10 nM + TNF-α (10 ng/mL), 4 h", "value": "0.40 ± 0.004", "unit": "ng/mL"}, {"measurement": "PGD2", "setting": "[3]; 10 nM + TNF-α (10 ng/mL), 4 h", "value": "0.17 ± 0.006", "unit": "ng/mL"}, {"measurement": "PGE2", "setting": "[3]; 10 nM + TNF-α (10 ng/mL), 4 h", "value": "0.45 ± 0.012", "unit": "ng/mL"}, {"measurement": "15d-PGJ2", "setting": "[3]; 10 nM + TNF-α (10 ng/mL), 24 h", "value": "0.71 ± 0.012^d ng/mL"}, {"measurement": "PGE2", "setting": "[3]; 10 nM + TNF-α (10 ng/mL), 24 h", "value": "1.75 ± 0.052^c ng/mL"}, {"measurement": "15d-PGJ2", "setting": "[3]; 10 nM, 4 h, without TNF-α", "value": "0.42 ± 0.010", "unit": "ng/mL"}, {"measurement": "PGD2", "setting": "[3]; 10 nM, 4 h, without TNF-α", "value": "0.18 ± 0.002", "unit": "ng/mL"}, {"measurement": "PGE2", "setting": "[3]; 10 nM, 4 h, without TNF-α", "value": "0.22 ± 0.006", "unit": "ng/mL"}, {"measurement": "15d-PGJ2", "setting": "[3]; 10 nM, 24 h, without TNF-α", "value": "0.59 ± 0.003^a ng/mL"}, {"measurement": "PGD2", "setting": "[3]; 10 nM, 24 h, without TNF-α", "value": "0.17 ± 0.003", "unit": "ng/mL"}, {"measurement": "PGE2", "setting": "[3]; 10 nM, 24 h, without TNF-α", "value": "0.30 ± 0.006", "unit": "ng/mL"}, {"measurement": "15d-PGJ2", "setting": "[3]; 100 nM + TNF-α (10 ng/mL), 4 h", "value": "0.41 ± 0.021", "unit": "ng/mL"}, {"measurement": "PGD2", "setting": "[3]; 100 nM + TNF-α (10 ng/mL), 4 h", "value": "0.18 ± 0.001", "unit": "ng/mL"}, {"measurement": "PGE2", "setting": "[3]; 100 nM + TNF-α (10 ng/mL), 4 h", "value": "0.39 ± 0.009", "unit": "ng/mL"}, {"measurement": "15d-PGJ2", "setting": "[3]; [4]", "value": "0.51 ± 0.012^d ng/mL"}, {"measurement": "PGE2", "setting": "[3]; [4]", "value": "1.40 ± 0.037^c ng/mL"}, {"measurement": "15d-PGJ2", "setting": "[3]; 100 nM, 4 h, without TNF-α", "value": "0.41 ± 0.004", "unit": "ng/mL"}, {"measurement": "PGD2", "setting": "[3]; 100 nM, 4 h, without TNF-α", "value": "0.17 ± 0.003", "unit": "ng/mL"}, {"measurement": "PGE2", "setting": "[3]; 100 nM, 4 h, without TNF-α", "value": "0.22 ± 0.005", "unit": "ng/mL"}, {"measurement": "15d-PGJ2", "setting": "[3]; 100 nM, 24 h, without TNF-α", "value": "0.58 ± 0.024^a ng/mL"}, {"measurement": "PGD2", "setting": "[3]; 100 nM, 24 h, without TNF-α", "value": "0.13 ± 0.002", "unit": "ng/mL"}, {"measurement": "PGE2", "setting": "[3]; 100 nM, 24 h, without TNF-α", "value": "0.25 ± 0.012", "unit": "ng/mL"}]}]}
